Like-named read-outs stand apart in the source and are kept apart here.
Assays:
Type in all cases: cell-based
[1] = target: T1, GluA1 (Rattus norvegicus, UniProt P19490); test: Whole-cell patch-clamp recording of homomeric GluA1 AMPAR expressed in HEK293T cells; conditions: for Amplitude with compound: 10 mM glutamate + 16 µM compound, mean±SEM; for Amplitude with compound / A/AI (current amplitude ratio without/with compound) / t deact (weighted deactivation time constant) / t des (weighted desensitization time constant) / Amplitude, applying glutamate alone after compound: n=8; for A/AI (current amplitude ratio without/with compound): 10 mM glutamate, 16 µM compound; for t deact (weighted deactivation time constant): 1 ms 10 mM glutamate + 16 µM compound; for t des (weighted desensitization time constant): 500 ms 10 mM glutamate + 16 µM compound; for Amplitude, applying glutamate alone after compound: washout/recovery
T1 construct: expressed in transfected cells; host or cells: HEK293T
Protocol: (§1) For the DNA preparation, the QIAGEN Plasmid Mini Kit was used to prepare up to 20 µg of high-copy plasmid DNA [30]. All AMPAR subunits utilized in this study included the flip isoform received from S. F. Heinemann (Salk Institute, La Jolla, CA, USA) and sub-cloned in pRK for expression in Human Embryonic Kidney Cells 293 (HEK293T). The human embryonic kidney (HEK293T) cells were obtained from Sigma, Taufkirchen, Germany, and we only used the HEK293T cell line due to their ease of growth and transfection and wide utilization in cell culture. For the transfection, we used the constructs GluA1, GluA2, GluA2/3, and GluA1/2, along with the GFP-expressing construct, as described in our previous work. The transfection reagents utilized were jetPRIME (Polyplus: New York, NY, USA) or Lipofectamine 2000 (Invitrogen; San Diego, CA, USA). The highly fluorescent cells were identified and selected for recording. The selected cells were seeded in Dulbecco Modified Eagle Medium (DMEM) (Sigma, Roedermark, Germany) containing 10% FBS, 0.1 mg/mL streptomycin, and 1 mM sodium pyruvate (Biological Industries; Beit-Haemek, Israel). The cells were incubated at 37 °C with 5% CO2 added to the medium and subcultured twice a week until they reached passage #20. Following a day and a half, the cells were replated on coverslips covered with Laminin (1 mg/mL; Sigma, Roedermark, Germany) for electrophysiological recordings. Our previous work has detailed the DNA preparation, cDNA transient transfection, and cell culture of HEK293T [30, 31, 32, 33].
(§2) After that, a patch was placed in front of a rapid perfusion system comprised of a theta tube flow pipe mounted on a piezoelectric translator that was used to wash the cell continuously from one barrel while the other supplied the compound of interest to the cell. Recordings were conducted 36–48 h after transfection at 22 °C, with a membrane potential of −60 mV. Currents were amplified using an integrated patch amplifier (IPA, Sutter Instruments, Novato, CA, USA), filtered at 2 kHz, and digitized at 10 kHz using SutterPatch Software v. 1.1.1 [46]. […] The extracellular medium contained (in mM): 150 NaCl, 2.8 KCl, 0.5 MgCl2, 2 CaCl2, and 10 HEPES, pH 7.4 adjusted with NaOH. The holding potential was typically −60 mV. The sample size was determined to be eight viable cells to calculate the mean inhibition of the derivative of interest. The solution exchange time (10–90% to peak) was estimated at […] using open-tip control at the end of a recording. Inhibition was calculated by comparing the current observed when the cell was supplied with glutamate alone and when the same cell was supplied with both glutamate and the 2,3-BDZ compounds. The initial tube containing only glutamate was reintroduced to the cell to ensure cellular safety and authenticate the antagonist’s findings. This step ensured that the glutamate-induced current observed before the administration of the antagonist was nearly indistinguishable from the current observed after administration.
(§3) The experiment served two purposes: first, determining the whole-cell current amplitude ratio in the absence and presence of the compounds (A/AI) to derive a constant inhibitory value independent of the rate measurement. Second, as an independent control method, a fast exchange solution flow methodology was employed using piezoelectric actuators, providing the fastest exchange solution with open-tip current rise times in the 100–300 μs range to assess the amplitude of the whole-cell current. Detailed data analysis of this process is provided in the supporting information (Tables S1–S4).
(§4) The data acquired were analyzed using Igor Pro7 (Wave Metrics, Inc., Portland, OR, USA). Receptor desensitization (τw des) and deactivation rates were estimated by fitting the current decay starting from 95% of the peak to the baseline current using a double exponential formulation. […]

[2] = target: T2, GluA1/2 (Rattus norvegicus, UniProt P19490+P19491); test: Whole-cell patch-clamp recording of heteromeric GluA1/2 AMPAR expressed in HEK293T cells; conditions: for Amplitude with compound: 10 mM glutamate + 16 µM compound, mean±SEM; for Amplitude with compound / A/AI (current amplitude ratio without/with compound) / t deact (weighted deactivation time constant) / t des (weighted desensitization time constant) / Amplitude, applying glutamate alone after compound: n=8; for A/AI (current amplitude ratio without/with compound): 10 mM glutamate, 16 µM compound; for t deact (weighted deactivation time constant): 1 ms 10 mM glutamate + 16 µM compound; for t des (weighted desensitization time constant): 500 ms 10 mM glutamate + 16 µM compound; for Amplitude, applying glutamate alone after compound: washout/recovery
T2 construct: expressed in transfected cells; host or cells: HEK293T
Protocol: as §1, §2, §3, §4

[3] = target: T3, GluA2 (Rattus norvegicus, UniProt P19491); test: Whole-cell patch-clamp recording of homomeric GluA2 AMPAR expressed in HEK293T cells; conditions: for Amplitude with compound: 10 mM glutamate + 16 µM compound, mean±SEM; for Amplitude with compound / A/AI (current amplitude ratio without/with compound) / t deact (weighted deactivation time constant) / t des (weighted desensitization time constant) / Amplitude, applying glutamate alone after compound: n=8; for A/AI (current amplitude ratio without/with compound): 10 mM glutamate, 16 µM compound; for t deact (weighted deactivation time constant): 1 ms 10 mM glutamate + 16 µM compound; for t des (weighted desensitization time constant): 500 ms 10 mM glutamate + 16 µM compound; for Amplitude, applying glutamate alone after compound: washout/recovery
T3 construct: expressed in transfected cells; host or cells: HEK293T
Protocol: as §1, §2, §3, §4

[4] = target: T4, GluA2/3 (Rattus norvegicus, UniProt P19491+P19492); test: Whole-cell patch-clamp recording of heteromeric GluA2/3 AMPAR expressed in HEK293T cells; conditions: for Amplitude with compound: 10 mM glutamate + 16 µM compound, mean±SEM; for Amplitude with compound / A/AI (current amplitude ratio without/with compound) / t deact (weighted deactivation time constant) / t des (weighted desensitization time constant) / Amplitude, applying glutamate alone after compound: n=8; for A/AI (current amplitude ratio without/with compound): 10 mM glutamate, 16 µM compound; for t deact (weighted deactivation time constant): 1 ms 10 mM glutamate + 16 µM compound; for t des (weighted desensitization time constant): 500 ms 10 mM glutamate + 16 µM compound; for Amplitude, applying glutamate alone after compound: washout/recovery
T4 construct: expressed in transfected cells; host or cells: HEK293T
Protocol: as §1, §2, §3, §4

[5] = system: AMPA receptor subunits; test: Whole-cell patch-clamp recording, statements over all tested AMPAR subunits (GluA1, GluA1/2, GluA2, GluA2/3) in HEK293T cells; conditions: 16 µM compound; for Effect on deactivation rate of the AMPAR subunits examined: 1 ms glutamate
Protocol: as §1, §2, §3, §4

[6] = log of IC50, read-out: Log IC50 (converted)
[7] = normalized peak current, -60 mV, pH 7.4, 22 °C, read-out: IC50

T2 sequence (P19490 19-907 isoform P19490-2 limits assumed): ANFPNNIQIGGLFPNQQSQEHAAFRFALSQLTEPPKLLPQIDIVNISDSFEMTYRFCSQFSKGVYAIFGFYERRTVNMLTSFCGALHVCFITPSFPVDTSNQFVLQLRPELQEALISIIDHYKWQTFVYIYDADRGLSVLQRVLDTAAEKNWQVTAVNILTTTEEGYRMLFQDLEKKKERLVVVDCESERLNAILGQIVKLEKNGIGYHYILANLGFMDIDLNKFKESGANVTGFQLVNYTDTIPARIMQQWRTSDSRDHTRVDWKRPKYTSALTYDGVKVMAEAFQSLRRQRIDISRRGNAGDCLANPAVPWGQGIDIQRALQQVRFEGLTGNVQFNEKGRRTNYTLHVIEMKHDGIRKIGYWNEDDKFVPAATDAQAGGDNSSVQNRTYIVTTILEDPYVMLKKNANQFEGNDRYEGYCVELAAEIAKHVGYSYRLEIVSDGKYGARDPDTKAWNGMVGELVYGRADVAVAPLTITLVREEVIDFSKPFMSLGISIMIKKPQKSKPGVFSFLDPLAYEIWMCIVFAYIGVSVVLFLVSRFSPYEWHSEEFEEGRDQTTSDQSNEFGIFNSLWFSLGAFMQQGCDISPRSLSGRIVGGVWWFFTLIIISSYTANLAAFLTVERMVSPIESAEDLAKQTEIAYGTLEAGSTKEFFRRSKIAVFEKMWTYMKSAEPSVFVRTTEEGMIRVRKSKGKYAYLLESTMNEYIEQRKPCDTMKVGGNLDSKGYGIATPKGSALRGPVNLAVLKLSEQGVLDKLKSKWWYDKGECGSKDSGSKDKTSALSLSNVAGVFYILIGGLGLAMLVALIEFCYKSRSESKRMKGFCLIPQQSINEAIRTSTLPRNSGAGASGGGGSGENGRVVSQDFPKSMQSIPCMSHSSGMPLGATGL
T2 sequence (P19491 22-883 isoform P19491-2 limits assumed): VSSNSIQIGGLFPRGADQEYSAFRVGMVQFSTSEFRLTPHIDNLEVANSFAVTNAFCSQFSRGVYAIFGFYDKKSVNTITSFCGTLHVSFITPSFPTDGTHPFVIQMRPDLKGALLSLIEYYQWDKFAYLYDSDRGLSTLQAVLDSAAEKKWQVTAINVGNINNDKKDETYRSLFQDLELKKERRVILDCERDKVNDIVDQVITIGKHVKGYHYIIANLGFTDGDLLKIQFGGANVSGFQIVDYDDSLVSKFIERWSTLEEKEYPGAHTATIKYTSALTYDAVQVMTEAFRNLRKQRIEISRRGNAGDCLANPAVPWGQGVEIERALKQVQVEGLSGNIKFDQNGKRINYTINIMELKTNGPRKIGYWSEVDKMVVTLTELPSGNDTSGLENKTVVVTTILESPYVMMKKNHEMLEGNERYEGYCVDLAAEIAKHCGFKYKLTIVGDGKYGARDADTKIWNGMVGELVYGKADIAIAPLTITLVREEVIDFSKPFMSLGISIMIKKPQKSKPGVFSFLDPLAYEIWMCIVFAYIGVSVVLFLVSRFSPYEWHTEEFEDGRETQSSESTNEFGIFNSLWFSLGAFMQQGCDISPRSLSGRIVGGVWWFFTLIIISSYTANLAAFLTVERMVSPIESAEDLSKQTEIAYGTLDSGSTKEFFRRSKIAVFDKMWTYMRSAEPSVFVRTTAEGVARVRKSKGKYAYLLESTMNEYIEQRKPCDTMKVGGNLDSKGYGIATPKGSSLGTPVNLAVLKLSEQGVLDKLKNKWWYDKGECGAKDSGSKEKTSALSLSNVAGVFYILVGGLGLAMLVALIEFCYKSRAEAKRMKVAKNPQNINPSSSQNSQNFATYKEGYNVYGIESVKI
T1 sequence (P19490 19-907 isoform P19490-2 limits assumed): as the sequence (P19490 19-907 isoform P19490-2 limits assumed) above
T4 sequence (P19491 22-883 isoform P19491-2 limits assumed): as the sequence (P19491 22-883 isoform P19491-2 limits assumed) above
T4 sequence (P19492 23-888 isoform P19492-2 limits assumed): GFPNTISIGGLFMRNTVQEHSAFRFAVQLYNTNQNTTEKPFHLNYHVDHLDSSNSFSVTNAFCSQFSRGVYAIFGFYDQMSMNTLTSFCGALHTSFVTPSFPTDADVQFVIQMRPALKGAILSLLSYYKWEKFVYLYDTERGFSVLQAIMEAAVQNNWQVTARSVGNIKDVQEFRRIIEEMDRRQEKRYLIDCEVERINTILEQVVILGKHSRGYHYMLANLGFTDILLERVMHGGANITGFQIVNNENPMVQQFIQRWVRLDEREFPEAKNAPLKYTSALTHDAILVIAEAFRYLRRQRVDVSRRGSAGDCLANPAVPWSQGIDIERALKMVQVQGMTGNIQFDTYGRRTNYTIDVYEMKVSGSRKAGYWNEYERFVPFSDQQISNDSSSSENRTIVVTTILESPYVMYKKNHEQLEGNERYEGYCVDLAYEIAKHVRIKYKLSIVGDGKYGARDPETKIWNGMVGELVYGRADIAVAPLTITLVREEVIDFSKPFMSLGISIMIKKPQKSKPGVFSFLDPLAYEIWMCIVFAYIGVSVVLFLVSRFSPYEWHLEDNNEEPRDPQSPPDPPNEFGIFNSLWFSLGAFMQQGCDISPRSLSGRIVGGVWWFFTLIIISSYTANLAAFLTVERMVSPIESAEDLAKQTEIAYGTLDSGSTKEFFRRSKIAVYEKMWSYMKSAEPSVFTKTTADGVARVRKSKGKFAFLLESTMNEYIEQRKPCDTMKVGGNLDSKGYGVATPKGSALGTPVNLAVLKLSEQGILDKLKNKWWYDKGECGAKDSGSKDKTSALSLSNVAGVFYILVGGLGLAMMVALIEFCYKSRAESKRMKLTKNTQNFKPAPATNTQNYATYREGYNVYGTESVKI
T3 sequence (P19491 22-883 isoform P19491-2 limits assumed): as the sequence (P19491 22-883 isoform P19491-2 limits assumed) above

SMILES: COc1cc(N)ccc1C1=NNC(=O)Cc2cc3c(cc21)OCO3 [2,3-BDZ-2, 1-(2-Methoxy-4-aminophenyl)-7,8-(methylenedioxy)-3,5-dihydro-4H-2,3-benzodiazepin-4-one]
- Amplitude with compound ([1]; -60 mV, pH 7.4, 22 °C): 93±10.0 pA
- A/AI (current amplitude ratio without/with compound) [1]: 9.82±0.7
- t deact (weighted deactivation time constant) [1]: 3.6 ± 0.3 ms
- t des (weighted desensitization time constant) [1]: 1.8 ± 0.1 ms
- IC50 [1, 6]: 3.47 µM
- IC50 [1, 7]: 3.51 µM
- Amplitude, applying glutamate alone after compound [1]: 914±40 pA
- Amplitude with compound ([2]; -60 mV, pH 7.4, 22 °C): 53±3.0 pA
- A/AI (current amplitude ratio without/with compound) [2]: 9.91±0.6
- t deact (weighted deactivation time constant) [2]: 3.9 ± 0.4 ms
- t des (weighted desensitization time constant) [2]: 3.8 ± 0.3 ms
- IC50 [2, 6]: 3.39 µM
- IC50 [2, 7]: 3.43 µM
- Amplitude, applying glutamate alone after compound [2]: 523±33 pA
- Amplitude with compound ([3]; -60 mV, pH 7.4, 22 °C): 127±12.0 pA
- A/AI (current amplitude ratio without/with compound) [3]: 10.42±0.8
- t deact (weighted deactivation time constant) [3]: 5.1 ± 0.4 ms
- t des (weighted desensitization time constant) [3]: 1.6 ± 0.05 ms
- IC50 [3, 6]: 3.39 µM
- IC50 [3, 7]: 3.36 µM
- Amplitude, applying glutamate alone after compound [3]: 1310±42 pA
- Amplitude with compound ([4]; -60 mV, pH 7.4, 22 °C): 52±7.0 pA
- A/AI (current amplitude ratio without/with compound) [4]: 10.28±0.6
- t deact (weighted deactivation time constant) [4]: 4.8 ± 0.5 ms
- t des (weighted desensitization time constant) [4]: 1.7 ± 0.08 ms
- IC50 [4, 6]: 3.47 µM
- IC50 [4, 7]: 3.45 µM
- Amplitude, applying glutamate alone after compound [4]: 532±26 pA
- Reduction in AMPAR subunit currents [5]: approximately 10 fold
- Effect on deactivation rate of the AMPAR subunits examined [5]: nearly doubles
- Reduction in the desensitization rate of the investigated subunits ([5]; 500 ms glutamate): 1–2 fold

SMILES: COc1cc([N+](=O)[O-])ccc1C1=NNC(=O)Cc2cc3c(cc21)OCO3 [2,3-BDZ-4, 1-(2-Methoxy-4-nitrophenyl)-7,8-(methylenedioxy)-3,5-dihydro-4H-2,3-benzodiazepin-4-one]
- Amplitude with compound ([1]; -60 mV, pH 7.4, 22 °C): 277±14 pA
- A/AI (current amplitude ratio without/with compound) [1]: 3.41±0.2
- t deact (weighted deactivation time constant) [1]: 2.3 ± 0.1 ms
- t des (weighted desensitization time constant) [1]: 2.2 ± 0.1 ms
- IC50 [1, 6]: 6.76 µM
- IC50 [1, 7]: 6.8 µM
- Amplitude, applying glutamate alone after compound [1]: 942±44 pA
- Amplitude with compound ([2]; -60 mV, pH 7.4, 22 °C): 170±9 pA
- A/AI (current amplitude ratio without/with compound) [2]: 3.44±0.2
- t deact (weighted deactivation time constant) [2]: 2.7 ± 0.2 ms
- t des (weighted desensitization time constant) [2]: 5.0 ± 0.3 ms
- IC50 [2, 6]: 6.76 µM
- IC50 [2, 7]: 6.69 µM
- Amplitude, applying glutamate alone after compound [2]: 583±40 pA
- Amplitude with compound ([3]; -60 mV, pH 7.4, 22 °C): 364±17 pA
- A/AI (current amplitude ratio without/with compound) [3]: 3.68±0.1
- t deact (weighted deactivation time constant) [3]: 2.7 ± 0.1 ms
- t des (weighted desensitization time constant) [3]: 2.5 ± 0.1 ms
- IC50 [3, 6]: 6.76 µM
- IC50 [3, 7]: 6.75 µM
- Amplitude, applying glutamate alone after compound [3]: 1340±52 pA
- Amplitude with compound ([4]; -60 mV, pH 7.4, 22 °C): 146±14 pA
- A/AI (current amplitude ratio without/with compound) [4]: 3.56±0.3
- t deact (weighted deactivation time constant) [4]: 2.8 ± 0.2 ms
- t des (weighted desensitization time constant) [4]: 2.6 ± 0.2 ms
- IC50 [4, 6]: 6.76 µM
- IC50 [4, 7]: 6.69 µM
- Amplitude, applying glutamate alone after compound [4]: 516±23 pA
- Effect on desensitization rate [5]: no change
- Reduction in AMPAR subunit currents [5]: 3 fold
- Effect on deactivation rate of the AMPAR subunits examined [5]: no change

Reference: PMC10458471, “Electrophysiological Assessment of Newly Synthesized 2,3-Benzodiazepine Derivatives for Inhibiting the AMPA Receptor Channel” (Molecules, 2023)
